ChEMBL document CHEMBL3885881, “DrugMatrix”

Species on record: Rattus norvegicus
Experiment: DrugMatrix - Regimen: Daily Repeat
Type: toxicity, organism-based, Sprague-Dawley
Set-up: regimen Daily Repeat, gender Male, age 6-8 weeks
Settings: in vivo, sc, route subcutaneous, […]; for ABSOLUTE BASOPHIL / ABSOLUTE EOSINOPHIL / ABSOLUTE LYMPHOCYTE / ABSOLUTE MONOCYTE / ABSOLUTE SEGMENTED NEUTROPHIL / BASOPHIL / EOSINOPHIL / ERYTHROCYTE COUNT / HEMATOCRIT / HEMOGLOBIN / LEUKOCYTE COUNT / LYMPHOCYTE / MEAN CORPUSCULAR HEMOGLOBIN / MEAN CORPUSCULAR HEMOGLOBIN CONCENTRATION / MEAN CORPUSCULAR VOLUME / MONOCYTE / NEUTROPHIL / NUCLEATED RED BLOOD CELLS / PLATELET COUNT: tissue Blood; for ALANINE AMINOTRANSFERASE / ALBUMIN / ALKALINE PHOSPHATASE / ASPARTATE AMINOTRANSFERASE / BLOOD UREA NITROGEN / CARBON DIOXIDE / CHLORIDE / CHOLESTEROL / CREATINE PHOSPHOKINASE / CREATININE / GLUCOSE / LACTATE DEHYDROGENASE / LIPASE / PHOSPHORUS / POTASSIUM / SODIUM / TOTAL BILIRUBIN / TOTAL PROTEIN / URIC ACID: tissue Plasma
[1] = 68 mg/kg, 72 h, dose level High, time 3 day
[2] = 68 mg/kg, 120 h, dose level High, time 5 day
[3] = 72 h, dose 6.8 mg/Kg, dose level Low, time 3 day
[4] = 120 h, dose 6.8 mg/Kg, dose level Low, time 5 day

Oc1cccc2cccnc12 [OXYQUINOLINE]
ABSOLUTE BASOPHIL [1]: 0 CELLS/uL
ABSOLUTE EOSINOPHIL [1]: 246.33 CELLS/uL
ABSOLUTE LYMPHOCYTE [1]: 13064.33 CELLS/uL
ABSOLUTE MONOCYTE [1]: 405.33 CELLS/uL
ABSOLUTE SEGMENTED NEUTROPHIL [1]: 1850.67 CELLS/uL
BASOPHIL [1]: 0%
EOSINOPHIL [1]: 1.67%
ERYTHROCYTE COUNT [1]: 5.38 x10E6/uL
HEMATOCRIT [1]: 34.33%
HEMOGLOBIN [1]: 12.8 G/DL
LEUKOCYTE COUNT [1]: 15.57 x10E3/uL
LYMPHOCYTE [1]: 83.67%
MEAN CORPUSCULAR HEMOGLOBIN [1]: 23.83 pg
MEAN CORPUSCULAR HEMOGLOBIN CONCENTRATION [1]: 37.33 G/DL
MEAN CORPUSCULAR VOLUME [1]: 63.87 fL
MONOCYTE [1]: 2.67%
NEUTROPHIL [1]: 12%
NUCLEATED RED BLOOD CELLS [1]: 0 /100WBC
PLATELET COUNT [1]: 1290 x10E3/uL
ALANINE AMINOTRANSFERASE [1]: 49.33 u/L
ALBUMIN [1]: 3.73 G/DL
ALKALINE PHOSPHATASE [1]: 444 u/L
ASPARTATE AMINOTRANSFERASE [1]: 72 u/L
BLOOD UREA NITROGEN [1]: 18.67 mg/dL
CARBON DIOXIDE [1]: 26 mmol/L
CHLORIDE [1]: 105 MEQ/L
CHOLESTEROL [1]: 65.33 mg/dL
CREATINE PHOSPHOKINASE [1]: 160.33 u/L
CREATININE [1]: 0.13 mg/dL
GLUCOSE [1]: 169 mg/dL
LACTATE DEHYDROGENASE [1]: 87.67 u/L
LIPASE [1]: 8.67 u/L
PHOSPHORUS [1]: 12.4 mg/dL
POTASSIUM [1]: 6.22 MEQ/L
SODIUM [1]: 146.43 MEQ/L
TOTAL BILIRUBIN [1]: 0.2 mg/dL
TOTAL PROTEIN [1]: 5.63 G/DL
URIC ACID [1]: 1.07 mg/dL
ABSOLUTE BASOPHIL [2]: 0 CELLS/uL
ABSOLUTE EOSINOPHIL [2]: 367.33 CELLS/uL
ABSOLUTE LYMPHOCYTE [2]: 11402.67 CELLS/uL
ABSOLUTE MONOCYTE [2]: 397.67 CELLS/uL
ABSOLUTE SEGMENTED NEUTROPHIL [2]: 1465.67 CELLS/uL
BASOPHIL [2]: 0%
EOSINOPHIL [2]: 2.67%
ERYTHROCYTE COUNT [2]: 5.88 x10E6/uL
HEMATOCRIT [2]: 36.73%
HEMOGLOBIN [2]: 13.63 G/DL
LEUKOCYTE COUNT [2]: 13.63 x10E3/uL
LYMPHOCYTE [2]: 83.33%
MEAN CORPUSCULAR HEMOGLOBIN [2]: 23.2 pg
MEAN CORPUSCULAR HEMOGLOBIN CONCENTRATION [2]: 37.13 G/DL
MEAN CORPUSCULAR VOLUME [2]: 62.53 fL
MONOCYTE [2]: 3%
NEUTROPHIL [2]: 11%
NUCLEATED RED BLOOD CELLS [2]: 0 /100WBC
PLATELET COUNT [2]: 1567 x10E3/uL
ALANINE AMINOTRANSFERASE [2]: 37.67 u/L
ALBUMIN [2]: 3.87 G/DL
ALKALINE PHOSPHATASE [2]: 326.67 u/L
ASPARTATE AMINOTRANSFERASE [2]: 67 u/L
BLOOD UREA NITROGEN [2]: 16.67 mg/dL
CARBON DIOXIDE [2]: 25.33 mmol/L
CHLORIDE [2]: 105 MEQ/L
CHOLESTEROL [2]: 75.33 mg/dL
CREATINE PHOSPHOKINASE [2]: 175 u/L
CREATININE [2]: 0.16 mg/dL
GLUCOSE [2]: 162 mg/dL
LACTATE DEHYDROGENASE [2]: 86.67 u/L
LIPASE [2]: 8 u/L
PHOSPHORUS [2]: 13.33 mg/dL
POTASSIUM [2]: 6.17 MEQ/L
SODIUM [2]: 147.4 MEQ/L
TOTAL BILIRUBIN [2]: 0.17 mg/dL
TOTAL PROTEIN [2]: 6.03 G/DL
URIC ACID [2]: 2.03 mg/dL
ABSOLUTE BASOPHIL [3]: 0 CELLS/uL
ABSOLUTE EOSINOPHIL [3]: 0 CELLS/uL
ABSOLUTE LYMPHOCYTE [3]: 14772 CELLS/uL
ABSOLUTE MONOCYTE [3]: 208 CELLS/uL
ABSOLUTE SEGMENTED NEUTROPHIL [3]: 1086.67 CELLS/uL
BASOPHIL [3]: 0%
EOSINOPHIL [3]: 0%
ERYTHROCYTE COUNT [3]: 5.93 x10E6/uL
HEMATOCRIT [3]: 37.03%
HEMOGLOBIN [3]: 13.73 G/DL
LEUKOCYTE COUNT [3]: 16.07 x10E3/uL
LYMPHOCYTE [3]: 91.33%
MEAN CORPUSCULAR HEMOGLOBIN [3]: 23.23 pg
MEAN CORPUSCULAR HEMOGLOBIN CONCENTRATION [3]: 37.07 G/DL
MEAN CORPUSCULAR VOLUME [3]: 62.63 fL
MONOCYTE [3]: 1.33%
NEUTROPHIL [3]: 7.33%
NUCLEATED RED BLOOD CELLS [3]: 0.33 /100WBC
PLATELET COUNT [3]: 1308.67 x10E3/uL
ALANINE AMINOTRANSFERASE [3]: 45.67 u/L
ALBUMIN [3]: 4.3 G/DL
ALKALINE PHOSPHATASE [3]: 363.67 u/L
ASPARTATE AMINOTRANSFERASE [3]: 73.33 u/L
BLOOD UREA NITROGEN [3]: 15 mg/dL
CARBON DIOXIDE [3]: 24.33 mmol/L
CHLORIDE [3]: 103 MEQ/L
CHOLESTEROL [3]: 68.67 mg/dL
CREATINE PHOSPHOKINASE [3]: 130.33 u/L
CREATININE [3]: 0.2 mg/dL
GLUCOSE [3]: 142.67 mg/dL
LACTATE DEHYDROGENASE [3]: 83.33 u/L
LIPASE [3]: 8.67 u/L
PHOSPHORUS [3]: 11.27 mg/dL
POTASSIUM [3]: 6.77 MEQ/L
SODIUM [3]: 146.07 MEQ/L
TOTAL BILIRUBIN [3]: 0.2 mg/dL
TOTAL PROTEIN [3]: 5.57 G/DL
URIC ACID [3]: 1.63 mg/dL
ABSOLUTE BASOPHIL [4]: 0 CELLS/uL
ABSOLUTE EOSINOPHIL [4]: 182.67 CELLS/uL
ABSOLUTE LYMPHOCYTE [4]: 12749.33 CELLS/uL
ABSOLUTE MONOCYTE [4]: 601.33 CELLS/uL
ABSOLUTE SEGMENTED NEUTROPHIL [4]: 1500 CELLS/uL
BASOPHIL [4]: 0%
EOSINOPHIL [4]: 1.33%
ERYTHROCYTE COUNT [4]: 6.16 x10E6/uL
HEMATOCRIT [4]: 37.9%
HEMOGLOBIN [4]: 13.87 G/DL
LEUKOCYTE COUNT [4]: 15.03 x10E3/uL
LYMPHOCYTE [4]: 84.67%
MEAN CORPUSCULAR HEMOGLOBIN [4]: 22.53 pg
MEAN CORPUSCULAR HEMOGLOBIN CONCENTRATION [4]: 36.6 G/DL
MEAN CORPUSCULAR VOLUME [4]: 61.5 fL
MONOCYTE [4]: 4%
NEUTROPHIL [4]: 10%
NUCLEATED RED BLOOD CELLS [4]: 0 /100WBC
PLATELET COUNT [4]: 1278.67 x10E3/uL
ALANINE AMINOTRANSFERASE [4]: 45 u/L
ALBUMIN [4]: 4.2 G/DL
ALKALINE PHOSPHATASE [4]: 341 u/L
ASPARTATE AMINOTRANSFERASE [4]: 77 u/L
BLOOD UREA NITROGEN [4]: 19 mg/dL
CARBON DIOXIDE [4]: 24.33 mmol/L
CHLORIDE [4]: 107 MEQ/L
CHOLESTEROL [4]: 75.33 mg/dL
CREATINE PHOSPHOKINASE [4]: 227.33 u/L
CREATININE [4]: 0.17 mg/dL
GLUCOSE [4]: 154.33 mg/dL
LACTATE DEHYDROGENASE [4]: 324 u/L
LIPASE [4]: 9 u/L
PHOSPHORUS [4]: 12.23 mg/dL
POTASSIUM [4]: 6.39 MEQ/L
SODIUM [4]: 146.97 MEQ/L
TOTAL BILIRUBIN [4]: 0.13 mg/dL
TOTAL PROTEIN [4]: 6.37 G/DL
URIC ACID [4]: 1.5 mg/dL
